Where only a bound is given, the exact number is not on record here.

For assay [1], the target named is T1, IDO1 (Homo sapiens (Human), UniProt P14902). The assay is described as follows: IDO1 Cellular Assay in Frozen HEK293 Cells Transiently Transfected with Human IDO1. Format: cell-based. The conditions noted are these: read-out: IDO1 HEK293 Cell Assay, IC50.
Assay [2] deals with T1, IDO1. Put plainly: IDO1 Cellular Assay in Hela Cells Stimulated with IFNγ. Format: cell-based. Conditions: Hela cells stimulated with IFNγ 100 ng/mL; read-out: IDO1 HELA Cell Assay, IC50.
For assay [3], the target named is T1, IDO1. The assay is described as follows: IDO1 Human Whole Blood Assay. Format: cell-based. The conditions noted are these: LPS and IFNγ 100 ng/mL, kynurenine by LC/MS/MS. Here is the method:
IDO1 Human Whole Blood Assay
LPS and IFNγ was prepared in RPMI to a 10× of final conc. (1000 ng/mL), final concentration is 100 ng/mL.
Human whole blood was drawn in sodium heparin coated tubes from healthy internal donors. Two hundred fourty μL of blood was transferred to each of the wells of a v-bottom 96 well plate. Thirty μL of compound was transferred from intermediate dilution plate, and incubated for 15 min. […] from stimulants was then transferred to blood and mixed thoroughly. Plate was covered with breathable membrane and incubated at 37° C. for overnight (18 h).
On day 2 isotope labeled standard of kunurenine and tryptophan was made in water at 10× concentration and 30 μL was added to the blood at 3 μM final concentration. The assay plates were centrifuged at 300×G for 10 min with no brake to separate plasma from red blood cells. Sixty μL of plasma samples was removed without disturbing red blood cells. Plasma was diluted with RPMI in 1:1 ratio and proteins were precipitated out with two volume of Acetonitrile. The plates was centrifuged at 4000×G for 60 min. Twenty μL of supernatant was carefully transferred to a 384 well plate contain 40 μL of 0.1% formic acid in water and analysed by LC/MS/MS.
LC/MS/MS analyses were performed using Thermo Fisher's LX4-TSQ Quantum Ultra system. This system consists of four Agilent binary high-performance liquid chromatography (HPLC) pumps and a TSQ Quantum Ultra triple quadrupole MS/MS instrument. For each sample, 5 μL were injected onto an Atlantis T3 column column (2.1 mm×150 mm, 3 μm particle size) from Waters. The mobile phase gradient pumped at 0.8 mL/min was used to elute the analytes from the column at 25° C. The elution started at 0% B increasing linearly to 25% B at 6.5 min, holding at 25% for 1 min, re-equilibrating to 10 min. Mobile phase A consisted of 0.1% formic acid in water. Mobile phase B consisted of 0.1% of formic acid in acetonitrile. Data was acquired in positive mode using a HESI interface. The operational parameters for the TSQ Quantum Ultra instrument were a spray voltage of 4000 V, capillary temperature of 380° C., vaporizer temperature 400° C., shealth gas 60 arbitrary units, Aux gas 20 arbitrary units, tube lens 85 and collision gas 1.2 mTorr. SRM chromatograms of kynurenine (Q1: 209.2>Q3:94.0) and internal standard (Q1: 215.3>Q3:98.2) were collected for 90 sec. The peak area was integrated by Xcalibur Quan software. The ratios between the kynurenine generated in the reaction and 2D6-Kynurenine spiked-in internal standard were used to generate percentage inhibition and IC50 values. Compounds were titrated and IC50's were calculated by 4 parameter sigmoidal curve fitting formula.

The target in assay [4] is T1, IDO1. Put plainly: IDO1 Enzyme Assay. Conditions: HIS-tagged recombinant IDO1, 40 nM.
[5] abbreviates: HEK293 cells transiently transfected with human IDO1.
Setting [6] is: read-out: IDO1 Enzyme Assay, IC50.

T1 sequence (P14902 whole entry): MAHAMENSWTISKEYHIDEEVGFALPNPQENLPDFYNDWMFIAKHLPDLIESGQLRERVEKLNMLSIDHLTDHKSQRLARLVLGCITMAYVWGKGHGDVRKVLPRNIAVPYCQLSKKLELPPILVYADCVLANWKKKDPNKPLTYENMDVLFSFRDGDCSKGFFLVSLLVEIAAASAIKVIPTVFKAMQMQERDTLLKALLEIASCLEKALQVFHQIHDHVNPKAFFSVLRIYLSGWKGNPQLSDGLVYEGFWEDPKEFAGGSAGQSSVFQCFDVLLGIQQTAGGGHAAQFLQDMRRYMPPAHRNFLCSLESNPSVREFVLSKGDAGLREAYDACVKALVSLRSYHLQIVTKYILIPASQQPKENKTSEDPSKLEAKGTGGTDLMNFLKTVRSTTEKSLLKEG

A word on the IC50: it is the concentration that gives 50% inhibition. `CC(C)(O)C(O)CSc1nonc1/C(=N/O)Nc1ccc(F)c(Cl)c1` (single isomer, unassigned) [Example 189, N-(3-chloro-4-fluorophenyl)-4-[(2,3-dihydroxy-3-methylbutyl)sulfanyl]-N′-hydroxy-1,2,5-oxadiazole-3-carboximidamide]: the 50% inhibitory concentration (IC50) on IDO1 [1] (setting [5]) amounted to 39.9 nM; on IDO1 [2] it was 66 nM; at IDO1 [3] it was 704 nM; at IDO1 [4] (IDO1 Enzyme Assay, IC50, nM), 69.4 nM.
Turning to `CC(C)(O)C(O)CSc1nonc1/C(=N/O)Nc1ccc(F)c(Cl)c1` (single isomer, unassigned) [Example 190, N-(3-chloro-4-fluorophenyl)-4-[(2,3-dihydroxy-3-methylbutyl)sulfanyl]-N′-hydroxy-1,2,5-oxadiazole-3-carboximidamide], the IC50 on IDO1 [1] (setting [5]) is 56.8 nM; at IDO1 [2], 111 nM; on IDO1 [3] it was 1390 nM; on IDO1 [4] (IDO1 Enzyme Assay, IC50, nM), 79.1 nM.
On to `OCC(O)CSc1nonc1/C(=N/O)Nc1ccc(F)c(Br)c1` (stereo not shown) [Example 17, (Z)-N-(3-bromo-4-fluorophenyl)-4-((2,3-dihydroxypropyl)thio)-N′-hydroxy-1,2,5-oxadiazole-3-carboximidamide], for which the IC50 on IDO1 [1] (setting [5]) was 42.5 nM; on IDO1 [2], 39.5 nM; against IDO1 [3], 441 nM; on IDO1 [4] (setting [6]), 34.8 nM.
Turning to `CC(C)(O)C(O)CSc1nonc1/C(=N/O)Nc1ccc(F)c(Br)c1` (stereo not shown) [Example 29, N-(3-bromo-4-fluorophenyl)-4-((2,3-dihydroxy-3-methylbutyl)thio)-N′-hydroxy-1,2,5-oxadiazole-3-carboximidamide], the IC50 at IDO1 [1] (setting [5]) was determined as 23.6 nM; at IDO1 [2], 61 nM; against IDO1 [3], 784 nM; on IDO1 [4] (IDO1 Enzyme Assay, IC50, nM) it was 81.3 nM.
Regarding `CC(C)(O)C(O)CSc1nonc1/C(=N/O)Nc1ccc(F)c(Br)c1` (stereo not shown) [Example 30, N-(3-bromo-4-fluorophenyl)-4-((2,3-dihydroxy-3-methylbutyl)thio)-N′-hydroxy-1,2,5-oxadiazole-3-carboximidamide], the IC50 at IDO1 [1] (setting [5]) came to 29.4 nM; on IDO1 [2] it was 84.2 nM; at IDO1 [3], 891 nM; at IDO1 [4] (IDO1 Enzyme Assay, IC50, nM), 85.3 nM.
As for `COCCNS(=O)(=O)NCCSc1nonc1/C(=N/O)Nc1ccc(F)c(Br)c1` [Example 31, N-(3-bromo-4-fluorophenyl)-N′-hydroxy-4-((2-((N-(2-methoxyethyl)sulfamoyl)amino)ethyl)thio)-1,2,5-oxadiazole-3-carboximidamide], the IC50 at IDO1 [1] (setting [5]) came to 10.2 nM; on IDO1 [2] it was 37.4 nM; against IDO1 [3], 643 nM; on IDO1 [4] (setting [6]), 43.4 nM.
As for `O=c1ccc(CSc2nonc2/C(=N/O)Nc2ccc(F)c(Br)c2)n[nH]1` [Example 35, N-(3-bromo-4-fluorophenyl)-N′-hydroxy-4-(((6-oxo-1,6-dihydropyridazin-3-yl)methyl)thio)-1,2,5-oxadiazole-3-carboximidamide], the IC50 at IDO1 [1] (setting [5]) stood at 77.7 nM; at IDO1 [2], 64.6 nM; against IDO1 [3], 923 nM; at IDO1 [4] (setting [6]), 34.9 nM.
In the case of `CNc1c(NCCSc2nonc2/C(=N/O)Nc2ccc(F)c(Br)c2)c(=O)c1=O` [Example 36, N-(3-bromo-4-fluorophenyl)-N′-hydroxy-4-((2-((2-(methylamino)-3,4-dioxocyclobut-1-en-1-yl)amino)ethyl)thio)-1,2,5-oxadiazole-3-carboximidamide], the IC50 is 206 nM on IDO1 [1] (setting [5]), 94.8 nM at IDO1 [2] and 7110 nM at IDO1 [3].
Consider `CC(=O)NCCSc1nonc1/C(=N/O)Nc1ccc(F)c(C#N)c1` [Example 37, N-(2-((4-(N-(3-cyano-4-fluorophenyl)-N′-hydroxycarbamimidoyl)-1,2,5-oxadiazol-3-yl)thio)ethyl)acetamide], for which the IC50 on IDO1 [1] (setting [5]) amounted to 83.1 nM; at IDO1 [2], 59.4 nM; on IDO1 [3], 469 nM; at IDO1 [4] (setting [6]), 104 nM.
In the case of `N#Cc1cc(N/C(=N\O)c2nonc2SCCNC(=O)C2CC2)ccc1F` [Example 40, N-(2-((4-(N-(3-cyano-4-fluorophenyl)-N′-hydroxycarbamimidoyl)-1,2,5-oxadiazol-3-yl)thio)ethyl)cyclopropanecarboxamide], the IC50 was determined as 92.1 nM on IDO1 [1] (setting [5]), 182 nM on IDO1 [2], 1670 nM at IDO1 [3] and 76.2 nM at IDO1 [4] (setting [6]).
With `CNC(=O)CSc1nonc1/C(=N/O)Nc1ccc(F)c(Br)c1` [Example 41, 2-((4-(N-(3-bromo-4-fluorophenyl)-N′-hydroxycarbamimidoyl)-1,2,5-oxadiazol-3-yl)thio)-N-methylacetamide], the IC50 came out at 22.2 nM at IDO1 [1] (setting [5]), 17.6 nM on IDO1 [2], 150 nM against IDO1 [3] and 43.1 nM on IDO1 [4] (setting [6]).
The matching figures for `COC(=O)CNP(=O)(CCSc1nonc1/C(=N/O)Nc1ccc(F)c(Br)c1)NCC(=O)OC` [Example 44, Dimethyl 2,2′-(((2-((4-(N-(3-bromo-4-fluorophenyl)-N′-hydroxycarbamimidoyl)-1,2,5-oxadiazol-3-yl)thio)ethyl)phosphoryl)bis(azanediyl))(Z)-diacetate]: 17.5 nM, 8.6 nM, 130 nM and 18.1 nM.
On to `CNC(=O)NCCSc1nonc1/C(=N/O)Nc1ccc(F)c(Br)c1` [Example 45, N-(3-bromo-4-fluorophenyl)-N′-hydroxy-4-((2-(3-methylureido)ethyl)thio)-1,2,5-oxadiazole-3-carboximidamide], for which the IC50 was 24.3 nM at IDO1 [1], 47.7 nM on IDO1 [2], 405 nM at IDO1 [3] and 22.5 nM on IDO1 [4] (setting [6]).
Turning to `O=C1CC[C@@H](CSc2nonc2/C(=N/O)Nc2ccc(F)c(Br)c2)N1` [Example 84, N-(3-bromo-4-fluorophenvl)-N′-hydroxy-4-({[(2S)-5-oxopyrrolidin-2-yl]methyl}sulfanyl)-1,2,5-oxadiazole-3-carboximidamide], the IC50 on IDO1 [1] (setting [5]) is 33.1 nM; at IDO1 [2] it was 27.2 nM; against IDO1 [3] it was 184 nM; on IDO1 [4] (setting [6]), 37.5 nM.
For `O=c1cccc(CSc2nonc2/C(=N/O)Nc2ccc(F)c(Br)c2)[nH]1` [Example 86, N-(3-bromo-4-fluorophenyl)-N′-hydroxy-4-{[(6-oxo-1,6-dihydropyridin-2-yl)methyl]sulfanyl}-1,2,5-oxadiazole-3-carboximidamide], the IC50 at IDO1 [1] (setting [5]) stood at 41.6 nM; at IDO1 [2], 15.7 nM; on IDO1 [3], 4120 nM; at IDO1 [4] (setting [6]) it was 32.3 nM.
With `Cn1c(CSc2nonc2/C(=N/O)Nc2ccc(F)c(Br)c2)n[nH]c1=O` [Example 98, N-(3-bromo-4-fluorophenyl)-N′-hydroxy-4-{[(4-methyl-5-oxo-4,5-dihydro-1H-1,2,4-triazol-3-yl)methyl]sulfanyl}-1,2,5-oxadiazole-3-carboximidamide], the IC50 at IDO1 [1] (setting [5]) was determined as 83 nM; at IDO1 [2] it was 57.1 nM; on IDO1 [3] it was 635 nM; on IDO1 [4] (setting [6]) it was 37.8 nM.
As to `Cc1cc(CSc2nonc2/C(=N/O)Nc2ccc(F)c(Br)c2)[nH]c(=O)c1` [Example 102, N-(3-bromo-4-fluorophenyl)-N′-hydroxy-4-{[(4-methyl-6-oxo-1,6-dihydropyridin-2-yl)methyl]sulfanyl}-1,2,5-oxadiazole-3-carboximidamide], the IC50 on IDO1 [1] (setting [5]) is 44.4 nM; on IDO1 [2], 81.8 nM; at IDO1 [3], more than 10000 nM; on IDO1 [4] (setting [6]), 72.4 nM.
Take `O=C(CSc1nonc1/C(=N/O)Nc1ccc(F)c(Br)c1)N[C@@H]1C[C@@H](O)[C@@H](O)C1` [Example 144, 2-({4-[N-(3-bromo-4-fluorophenyl)-N′-hydroxycarbamimidoyl]-1,2,5-oxadiazol-3-yl}sulfanyl)-N-[(1s,3R,4S)-3,4-dihydroxycyclopentyl]acetamide]: the IC50 at IDO1 [1] (setting [5]) worked out at 549 nM; against IDO1 [3], 3990 nM; at IDO1 [4] (setting [6]) it was 75.8 nM.
